From ChEMBL document CHEMBL1201862, “PubChem BioAssay data set” (2004)
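Where inhibition never reached the appropriate level, the endpoint shown equals the highest concentration tested. Otherwise, values were interpolated linearly from a five-concentration, 48-hour dose response in 96-well plates. GI50 marks 50% less growth.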 The source made the active and inactive calls. Rule as the data show it: active = GI50 up to about 1.1 µM and inactive = higher.

How the values were obtained:
Assay in all cases: NCI anticancer screen, dose series, 48 h
MDA-N = tested on: MDA-N
HOP-62 = tested on: HOP-62
OVCAR-4 = tested on: OVCAR-4
NCI-H522 = tested on: NCI-H522
TK-10 = tested on: TK-10
T47D = tested on: T47D
K562 = tested on: K562
HT-29 = tested on: HT-29
COLO 205 = tested on: COLO 205
HOP-92 = tested on: HOP-92
786-0 = tested on: 786-0
SK-OV-3 = tested on: SK-OV-3
HCT-15 = tested on: HCT-15
CCRF-CEM = tested on: CCRF-CEM
HCT-116 = tested on: HCT-116
PC-3 = tested on: PC-3
UO-31 = tested on: UO-31
NCI-H226 = tested on: NCI-H226
SN12C = tested on: SN12C
SW-620 = tested on: SW-620

CCN(CC)C(=S)SC1CCOP(=O)(N(CCCl)CCCl)N1C (stereo not given)
GI50 (MDA-N): > 100 µM (inactive) | GI50 (HOP-62): > 95.1 µM (inactive) | GI50 (OVCAR-4): 29.9 µM (inactive) | GI50 (NCI-H522): 0.43 µM (active) | GI50 (TK-10): > 71.1 µM (inactive) | GI50 (T47D): 61.7 µM (inactive) | GI50 (K562): 0.399 µM (active) | GI50 (HT-29): 1.99 µM (inactive) | GI50 (COLO 205): 0.553 µM (active) | GI50 (HOP-92): 28.2 µM (inactive) | GI50 (786-0): 41.2 µM (inactive) | GI50 (SK-OV-3): > 80.2 µM (inactive) | GI50 (HCT-15): 28.2 µM | GI50 (CCRF-CEM): 0.109 µM (active) | GI50 (HCT-116): 0.412 µM (active) | GI50 (PC-3): > 100 µM (inactive) | GI50 (UO-31): 67.8 µM (inactive) | GI50 (NCI-H226): 48.3 µM (inactive) | GI50 (SN12C): 28.9 µM (inactive) | GI50 (SW-620): 1.71 µM (inactive)
